Each structure is given as a SMILES string. Counter-ions that a name gives are not always drawn.

The values below come from patent US7544694B2, “Substituted diaza-spiro-[5.5]-undecane derivatives and their use as neurokinin antagonists” (Janssen Pharmaceutica N.V., priority 2004, dated 2009).

Data set [1] concerns the target NK1 (Homo sapiens, UniProt P25103). The data set can be described thus: Signal transduction (ST), intracellular Ca++ (FLIPR), functional NK1 antagonistic activity. The format is cell-based. As to conditions: antagonist, read-out: NK1 pIC50 (converted). The procedure, abridged: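 Confluent cells were loaded with 2 μM Fluo3 for 1 h at 37° C, then washed into Krebs buffer pH 7.4 with 1.25 mM CaCl2 and 2.5 mM probenecid. Antagonists were preincubated 20 min at RT before agonist addition. Peak Ca++ transients were read by FLIPR, with EC50 or IC50 from sigmoidal non-linear regression.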

Data set [2] has as its target T1, NK2 (Homo sapiens, UniProt P21452).
T1 sequence (P21452 1-398): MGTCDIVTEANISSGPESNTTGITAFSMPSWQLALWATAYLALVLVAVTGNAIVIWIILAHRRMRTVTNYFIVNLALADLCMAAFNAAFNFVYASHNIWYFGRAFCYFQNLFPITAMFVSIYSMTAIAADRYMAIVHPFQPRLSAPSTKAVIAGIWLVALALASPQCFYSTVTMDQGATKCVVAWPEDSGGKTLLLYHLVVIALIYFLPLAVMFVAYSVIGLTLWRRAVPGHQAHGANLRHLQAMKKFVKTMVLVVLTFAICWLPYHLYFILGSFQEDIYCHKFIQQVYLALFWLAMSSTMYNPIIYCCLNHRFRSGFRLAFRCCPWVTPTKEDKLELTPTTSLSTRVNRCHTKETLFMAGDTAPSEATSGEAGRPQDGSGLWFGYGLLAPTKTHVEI
The data set can be described thus: Signal transduction (ST), intracellular Ca++ (FLIPR), NK2. As to conditions: antagonist, read-out: NK2 pIC50 (converted). Type of data set: cell-based.

Data set [3] concerns the target T2, NK3 (Homo sapiens, UniProt P29371).
T2 sequence (P29371 1-465): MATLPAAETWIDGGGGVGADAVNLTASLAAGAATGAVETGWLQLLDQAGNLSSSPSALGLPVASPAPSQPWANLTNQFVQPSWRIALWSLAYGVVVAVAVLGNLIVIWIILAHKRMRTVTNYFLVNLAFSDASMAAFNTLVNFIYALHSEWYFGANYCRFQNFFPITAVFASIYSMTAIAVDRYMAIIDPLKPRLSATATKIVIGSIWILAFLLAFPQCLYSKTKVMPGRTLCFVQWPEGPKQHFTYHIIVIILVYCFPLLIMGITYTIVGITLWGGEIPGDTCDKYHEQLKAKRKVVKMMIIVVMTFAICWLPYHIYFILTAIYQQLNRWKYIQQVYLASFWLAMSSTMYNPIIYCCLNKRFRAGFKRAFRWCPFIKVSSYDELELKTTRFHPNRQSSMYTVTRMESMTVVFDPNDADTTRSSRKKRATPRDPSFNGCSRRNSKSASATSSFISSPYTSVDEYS
The data set can be described thus: Signal transduction (ST), intracellular Ca++ (FLIPR), NK3. The format is cell-based. As to conditions: antagonist, read-out: NK3 pIC50 (converted).

Chain of NK1 (P25103 whole entry): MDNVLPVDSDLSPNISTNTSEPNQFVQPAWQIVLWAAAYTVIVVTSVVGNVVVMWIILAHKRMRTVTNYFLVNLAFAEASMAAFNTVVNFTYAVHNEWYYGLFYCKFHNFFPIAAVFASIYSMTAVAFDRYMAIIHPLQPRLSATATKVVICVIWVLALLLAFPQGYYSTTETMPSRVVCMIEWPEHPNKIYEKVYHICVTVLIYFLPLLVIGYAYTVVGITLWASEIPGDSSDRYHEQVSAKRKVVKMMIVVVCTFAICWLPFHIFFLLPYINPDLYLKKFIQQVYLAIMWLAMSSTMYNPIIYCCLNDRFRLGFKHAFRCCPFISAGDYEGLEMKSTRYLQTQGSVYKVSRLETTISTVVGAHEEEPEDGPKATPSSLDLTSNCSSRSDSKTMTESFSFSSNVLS

Regarding `O=C(c1cc(C(F)(F)F)cc(C(F)(F)F)c1)N1CCC(N2CCC3(CCN(Cc4ccccc4)CC3)CC2)CC1Cc1ccccc1` (stereo not shown) (as salt: hydrochloric acid salt) [Compound 5], the melting point is 183 °C.

In turn, `O=C(c1cc(C(F)(F)F)cc(C(F)(F)F)c1)N1CCC(N2CCC3(CC2)CCN(S(=O)(=O)c2cccs2)CC3)CC1Cc1ccccc1` (stereo not shown) (as salt: oxalate) [Compound 92] displayed a melting point of 132 °C.

`O=C(C1CC1)N1CCC2(CC1)CCN(C1CCN(C(=O)c3cc(C(F)(F)F)cc(C(F)(F)F)c3)C(Cc3ccccc3)C1)CC2` (stereo not shown) [Compound 3] gave a melting point of 160 °C. The IC50 in data set [1] was 37.2 nM. In addition, in data set [2], the IC50 is 1100 nM. Also, in data set [3], the IC50 was 1510 nM.

Regarding `CC(C)(C)OC(=O)N1CCC2(CC1)CCN(C1CCN(C(=O)c3cc(C(F)(F)F)cc(C(F)(F)F)c3)C(Cc3ccc(Cl)c(Cl)c3)C1)CC2` (stereo not shown) [Compound 130], the melting point was 80 °C.

As for `O=C1CC2(CCN1Cc1ccccc1F)CCN([C@@H]1CCN(C(=O)c3cc(C(F)(F)F)cc(C(F)(F)F)c3)[C@H](Cc3ccccc3)C1)CC2` [Compound 203], the IC50 in data set [1] is 661 nM; in data set [2], 3390 nM; in data set [3], above 10000 nM.

In the case of `CC(C)(C)C(=O)N1CCCC2(CCCN([C@H]3CCN(C(=O)c4cc(C(F)(F)F)cc(C(F)(F)F)c4)[C@H](Cc4ccccc4)C3)C2)C1` (stereo partly shown) [Compound 207], the IC50 in data set [1] is 589 nM; in data set [2], 1910 nM; in data set [3], 5750 nM.

Take `O=C(C1CC1)N1CCCC2(CCCN([C@H]3CCN(C(=O)c4cc(C(F)(F)F)cc(C(F)(F)F)c4)[C@H](Cc4ccccc4)C3)C2)C1` (stereo partly shown) [Compound 208]: the IC50 in data set [1] was 347 nM; in data set [2] it was 2630 nM; in data set [3], 4270 nM.

With `O=C(c1ccoc1)N1CCCC2(CCCN(C3CCN(C(=O)c4cc(C(F)(F)F)cc(C(F)(F)F)c4)C(Cc4ccccc4)C3)C2)C1` (stereo not shown) [Compound 212], the IC50 in data set [1] is 631 nM; in data set [2], 3550 nM; in data set [3], 3800 nM.

The term melting point denotes the temperature of the solid-liquid transition.
